Row | Compound | melting point
1 | NC(=O)c1ccc(CCl)c([N+](=O)[O-])c1 | 115 to 117 °C
2 | Cc1cc(Br)ccc1CO | 74 to 76 °C
3 | Nc1ccc(N2CCOCC2)c(S(=O)(=O)Nc2ccc(Cl)cc2)c1 | 236 to 238 °C
4 | c1nc(C2CCCCN2)n[nH]1 (stereo unspecified) | 104 to 106 °C
5 | Cc1ccc(C)n1-c1ccc(CC(=O)O)cc1 | 106 to 108 °C
6 | NCc1nnc2n1CCCCC2 | 70 to 72 °C
7 | Cc1cc(C=CC(=O)O)cnc1N | 229 to 231 °C
8 | O=C(O)C=Cc1cc(Br)cs1 | 169 to 171 °C
9 | CCOC(=O)C(NS(=O)(=O)CC)C(=O)OCC | 51 to 53 °C
10 | CC(C)(C)OC(=O)N1CCCC(CC#N)C1 (stereo unspecified) | 48 to 50 °C
11 | CNC(=O)c1ccc(C=O)cc1 | 152 to 154 °C
12 | O=C(O)c1ccc2ncoc2c1 | 242 to 244 °C
13 | O=C(O)c1ccc([N+](=O)[O-])c(Br)n1 | 179 to 181 °C
14 | O=C(O)c1ccc(-c2ccc(F)cc2)o1 | 193 to 195 °C
15 | Clc1ccc2c(n1)NCC2 | 141 to 143 °C
16 | NNC(=O)COc1ccc(Br)cc1 | 170 to 172 °C
17 | NCc1noc(-c2ccsc2)n1 | 127 to 129 °C
18 | Cn1cc(C(=O)O)c(C(F)(F)F)c1 | 205 to 207 °C
19 | CC(C)c1ccc(C(=O)N2CCNCC2)cc1 | 129 to 131 °C
20 | CC(C)(C(=O)O)c1ccc(N)cc1 | 165 to 167 °C
21 | CC(C)(C)OC(=O)NC1(CC(=O)O)CCC1 | 126 to 128 °C
22 | CCS(=O)(=O)NCC(=O)O | 85 to 87 °C
23 | O=C(O)Cn1cn[nH]c1=O | 217 to 219 °C
24 | N#CCc1ccccc1CC(=O)O | 99 to 101 °C
25 | CCOc1ccc(-c2csc(=O)[nH]2)cc1 | 222 to 224 °C

Row | Compound | melting point
26 | Cc1[nH]c(N)c(C#N)c1C | 149 to 151 °C
27 | NS(=O)(=O)Cc1ccon1 | 106 to 108 °C
28 | Cn1c(=O)c(CBr)nc2ccccc21 | 179 to 181 °C
29 | COCc1c(C(=O)O)sc2ccccc12 | 159 to 161 °C
30 | CCCOc1ccc(CCC(=O)O)cc1 | 90 to 92 °C
31 | ClCc1csc(-c2ccsc2)n1 | 64 to 66 °C
32 | O=C(Nc1ccccn1)OCC(F)(F)F | 150 to 152 °C
33 | Cc1ccc(S(=O)(=O)Nc2ccccc2Br)cc1 | 88 to 90 °C
34 | CNC(=O)CCCl | 63 to 65 °C
35 | CC1(c2cccc([N+](=O)[O-])c2)NC(=O)NC1=O (stereo unspecified) | 178 to 180 °C
36 | CC(C)(C)OC(=O)NCCNS(=O)(=O)c1ccc(N)cc1 | 130 to 132 °C
37 | N#Cc1ccc(OCC2CC2)nc1 | 53 to 55 °C
38 | Nc1nc2ccccc2n1CCCc1ccccc1 | 146 to 148 °C
39 | CCOC(=O)c1sc2nc(Cl)cc(C)c2c1C | 125 to 127 °C
40 | O=C(O)c1ccc(S(=O)(=O)c2ccccc2)s1 | 192 to 194 °C
41 | O=C(O)/C=C/c1ccc(OCc2cn3ccccc3n2)cc1 | 190 to 192 °C
42 | Cc1c(I)cccc1[N+](=O)[O-] | 34 to 36 °C
43 | O=c1[nH]c(=O)c2cc(S(=O)(=O)Cl)cnc2[nH]1 | 311 to 313 °C
44 | Cc1cc(=O)c(C(=O)O)n[nH]1 | 193 to 195 °C
45 | O=C(O)C1CCCN(C(=O)c2cccc3ccccc23)C1 (stereo unspecified) | 255 to 257 °C
46 | COc1ccc(NCc2ccc(N(C)C)cc2)cc1 | 102 to 104 °C
47 | CCC(=O)NNC(=O)C(C)Cl (stereo unspecified) | 157 to 159 °C
48 | N#Cc1ccc(Cl)c(N)c1 | 87 to 91 °C
49 | Cc1ccc(-c2cc(N)on2)cc1 | 148 to 150 °C
50 | O=C(O)CSc1nccn1-c1cccc(F)c1 | 140 to 142 °C

Row | Compound | melting point
51 | NS(=O)(=O)c1ccccc1I | 161 to 163 °C
52 | Cc1ccc(-c2nnc(S)o2)cc1C | 195 to 197 °C
53 | COc1ccc(N)cc1OCC(N)=O | 161 to 163 °C
54 | COc1cc(C=O)ccc1SC | 45 to 47 °C
55 | Cc1ccccc1-c1cc(N)n(Cc2ccccc2)n1 | 139 to 141 °C
56 | Cn1c(N)c(C(=O)CCl)c(=O)n(C)c1=O | 185 to 187 °C
57 | N#Cc1cc([N+](=O)[O-])ccc1N1CCC(C(=O)O)CC1 | 161 to 163 °C
58 | Cc1c(C(=O)O)sc2nc(CCl)[nH]c(=O)c12 | 322 to 324 °C
59 | COc1ccccc1CC(C)CC(=O)O (stereo unspecified) | 49 to 51 °C
60 | Cc1ccc2ncnc(O)c2c1 | 238 to 240 °C
61 | Cc1cc(C)c2c(c1)NC(=O)C2=O | 233 to 235 °C
62 | CC(C)NC(=O)c1ccc(Cl)cc1N | 158 to 160 °C
63 | CN(C)C(=O)Cc1ccc(N)cc1 | 97 to 99 °C
64 | O=C(CCl)NC(=O)NC12CC3CC(CC(C3)C1)C2 | 169 to 171 °C
65 | N#Cc1cccc(-c2cscn2)c1 | 111 to 113 °C
66 | Cc1nc2cc(C(=O)O)ccc2n1-c1ccccc1 | 210 to 212 °C
67 | Clc1nc(-c2ccccn2)nc2c1CCC2 | 142 to 144 °C
68 | CC(N)c1ccc(OCC(N)=O)cc1 (stereo unspecified) | 127 to 129 °C
69 | Cc1cc(S(C)(=O)=O)cc(C(=O)O)c1C | 199 to 201 °C
70 | O=C(O)COc1ccc(Nc2ccccc2)cc1 | 138 to 142 °C
71 | Cc1nc2ncnn2c(C)c1CCC(=O)O | 224 to 226 °C
72 | CCC(C#N)NC(=O)c1ccccc1 (stereo unspecified) | 104 to 106 °C
73 | CCCOc1ccc(OCC(=O)O)cc1 | 106 to 108 °C
74 | O=C(NCC(F)(F)F)OCC(F)(F)F | 53 to 55 °C
75 | CCNc1ccc(S(=O)(=O)C(F)F)cc1N | 115 to 117 °C

Row | Compound | melting point
76 | CCCOc1ccc(/C=C/C(=O)O)cc1 | 179 to 181 °C
77 | O=C(O)c1ccc(OCc2ccccc2)nc1 | 168 to 170 °C
78 | Ic1c[nH]c2ccncc12 | 171 to 173 °C
79 | COC(=O)c1cc(S(=O)(=O)Cl)ccc1Cl | 79 to 81 °C
80 | Cc1ccc(C(=O)O)cc1S(=O)(=O)NC1CCCC1 | 185 to 187 °C
81 | O=C(O)COc1ccc([N+](=O)[O-])c(F)c1 | 149 to 151 °C
82 | Cc1cc(NC(=O)CCl)n(C)n1 | 115 to 117 °C
83 | Nc1cc(-n2cnnn2)ccc1Cl | 159 to 161 °C
84 | O=Cc1ccc(OCCn2cc(C(=O)O)nn2)c(Cl)c1 | 189 to 191 °C
85 | CCC1CCCCC1NC(=O)c1ccnc(F)c1 (stereo unspecified) | 69 to 71 °C
86 | Cc1cc(N)n(-c2ncccn2)n1 | 203 to 205 °C
87 | Nc1ccc2c(ccn2CC(=O)N2CCOCC2)c1 | 209 to 211 °C
88 | COC(=O)c1sc(-c2cccc(Br)c2)cc1N | 107 to 109 °C
89 | O=C1CC2(CCOCC2)CN1 | 132 to 134 °C
90 | Cc1sc2nc(CN3CCOCC3)nc(Cl)c2c1C | 102 to 104 °C
91 | CC(C)Sc1ccc(Cl)nn1 | 56 to 58 °C
92 | O=C(O)CNC(=O)C1CCCC1 | 109 to 111 °C
93 | COC(=O)c1ccccc1CS(=O)(=O)F | 89 to 91 °C
94 | Nc1ccc(-c2nc(C3CC3)n[nH]2)cc1 | 192 to 194 °C
95 | Cc1nccn1Cc1ccc(N)cc1 | 159 to 161 °C
96 | Cn1c(CO)nnc1C1CCC1 | 133 to 135 °C
97 | Nc1nc(-c2cccc(Cl)c2)ns1 | 149 to 151 °C
98 | COC(=O)C(=O)CC(=O)c1cc(OC)ccc1OC | 85 to 90 °C
99 | Cc1ccccc1-n1c(S)nc2sc3c(c2c1=O)CCC(C)C3 (stereo unspecified) | 230 to 232 °C
100 | Cc1nc(CN)oc1-c1ccc(Cl)cc1 | 69 to 71 °C

Row | Compound | melting point
101 | NS(=O)(=O)c1c(Cl)nc2ccccn12 | 174 to 176 °C
102 | CCS(=O)(=O)Nc1ccc(N)cc1 | 88 to 90 °C
103 | Sc1nccn1Cc1ccccn1 | 173 to 175 °C
104 | O=C(O)c1[nH]nc2cc(OC(F)(F)F)ccc12 | 261 to 263 °C
105 | COc1ccc(S(=O)(=O)Cl)cc1C1(C)NC(=O)NC1=O (stereo unspecified) | 214 to 216 °C
106 | COc1ccc(S(=O)(=O)NC2CCOCC2)cc1N | 164 to 166 °C
107 | O=C(NCc1ccco1)c1cccc(CCl)c1 | 74 to 76 °C
108 | O=C(O)c1cnc(-c2ccc3c(c2)CCO3)s1 | 215 to 217 °C
109 | O=c1[nH]c(-c2ccc(Cl)cc2)co1 | 241 to 243 °C
110 | CCn1c(=O)[nH]c2cc(C(=O)O)ccc2c1=O | 347 to 349 °C
111 | C#CCn1cnc2c(N)ncnc21 | 184 to 186 °C
112 | Cc1cc(=O)[nH]cc1C(=O)O | 306 to 308 °C
113 | Nc1ccc(F)c(NC(=O)c2ccsc2)c1 | 118 to 120 °C
114 | CCCCS(=O)(=O)N1CCCCC1C(=O)O (stereo unspecified) | 78 to 80 °C
115 | CC(=O)Nc1ccc(C)c(N)c1 | 134 to 136 °C
116 | CCOc1ccc([N+](=O)[O-])cc1CO | 102 to 104 °C
117 | CCOc1ccc(Oc2ccccc2N)cc1 | 158 to 160 °C
118 | COc1ccc2nc(C#N)ccc2c1 | 176 to 178 °C
119 | O=C(O)C1CCN(C(=O)c2ccc(C(F)(F)F)cc2)CC1 | 162 to 164 °C
120 | CC1(c2c(F)cccc2F)NC(=O)NC1=O (stereo unspecified) | 215 to 217 °C
121 | Clc1ccc(OCCCBr)cc1 | 29 to 34 °C
122 | Cc1cc(C(=O)O)[nH]c(=O)n1 | 209 to 211 °C
123 | Cc1nc2s[nH]c(=O)c2c(C)c1C | 236 to 238 °C
124 | CCNc1nnc(C)c2ccccc12 | 135 to 137 °C
125 | O=S(=O)(c1ccccc1)c1ccc(O)cc1 | 135 to 137 °C

Row | Compound | melting point
126 | CCC(C)c1csc(NC)n1 (stereo unspecified) | 49 to 51 °C
127 | Cc1cccc2nc(C(F)(F)F)[nH]c(=O)c12 | 118 to 120 °C
128 | Cn1ccnc1COc1ccc(C(=O)O)cc1 | 235 to 237 °C
129 | O=C(O)c1cc(S(=O)(=O)Cl)cc(Cl)c1Cl | 151 to 153 °C
130 | NCC(O)COc1cccc(F)c1 (stereo unspecified) | 84 to 86 °C
131 | Fc1cccc2c1CN=C1CCCN12 | 71 to 73 °C
132 | COc1cc(C)nc(CO)c1 | 69 to 71 °C
133 | CC(C)CCNC(N)=O | 43 to 45 °C
134 | COC(=O)c1cc(N)ccc1C | 38 to 40 °C
135 | COC(=O)c1c(O)cc(=O)n2c1CCCCC2 | 222 to 224 °C
136 | NC(=O)CN1CCC(N)CC1 | 74 to 76 °C
137 | Nc1cnccc1-c1cccc(F)c1 | 66 to 68 °C
138 | O=C(O)c1ccc(S(=O)(=O)N2CCCCC2)cc1 | 270 to 272 °C
139 | O=C(O)c1cc(Br)cc(Cl)c1O | 207 to 209 °C
140 | CC(=O)c1ccc2ccccc2n1 | 47 to 49 °C
141 | CC(C)(CO)C(CN)c1ccccc1 (stereo unspecified) | 116 to 118 °C
142 | COc1cc(CC#N)c(Br)cc1OC(F)F | 80 to 82 °C
143 | CC(CC(=O)O)NS(=O)(=O)c1cccnc1Cl (stereo unspecified) | 144 to 146 °C
144 | COc1ccc(-c2nc(C=O)cs2)cc1 | 97 to 99 °C
145 | BrC1=CC2C(C3C=CC2(Br)C32OCCO2)C12OCCO2 (stereo unspecified) | 178 to 180 °C
146 | CS(=O)(=O)C1CCCCC1=O (stereo unspecified) | 69 to 71 °C

— a melting point compilation (Tetko et al.)
